The record followed here is PMC10759735, “The diverse functions of Mu-class Glutathione S-transferase HrGSTm1 during the development of Hyalomma rufipes with a focus on the detoxification metabolism of cyhalothrin” (Parasites & Vectors, 2024).

Each structure is given as a SMILES string.

The experiment concerns T1, rHrGSTm1.
T1 construct: gene HrGSTm1; full-length CDS (672-bp ORF); 223 aa in abstract, 233; recombinant 44 kDa, no tag removal described
Briefly: GSH conjugation, absorbance at […] nm, Michaelis-Menten fit. The experiment is classed as biochemical, Hyalomma rufipes. The settings on record: 5 mM GSH; CDNB varied 0.125-2 mM (printed unit μM lies far below this range, possibly meant mM); abstract calls glutathione the substrate.

In the case of `O=[N+]([O-])c1ccc(Cl)c([N+](=O)[O-])c1` [CDNB, 1-Chlom-2,4-Dinitrobenzene], the Michaelis-Menten constant (Km) (commonly the concentration of substrate that gives half-maximal velocity) is 2.21 ± 0.76 µM.
